Assay [1] relates to Ser. marcescens ATCC 13880. In words: MIC (MHK), agar diffusion and serial dilution test. Particulars: Serratia marcescens, ATCC13880, read-out: MHK-Werte. In kind it is cell-based. An excerpt: (§1) Die Untersuchungen auf die antibakterielle Wirksamkeit in vitro wurde nach dem Agar-Diffusionstest und nach dem Reihenverdünnungstest in Anlehnung an die von P. Klein in "Bakteriologische Grundlagen der Chemotherapeutischen Laboratoriumspraxis", Springerverlag 1957, Seiten 53 bis 76 und 87 bis 109, beschriebenen Methodik durchgeführt.
(§2) Für D-α-[3-(3,4-Dihydro-3-methyl-2-hydroxy-4-oxo-5- pyrimidyl)-ureido/-p-hydroxybenzyl-penicillin-Natrium (Verbindung 1) und für Natrium-7-{D-α-[3-(3,4-Dihydro-2-hydroxy-3-methyl-4-oxo-5-pyrimidyl)-ureido]-p-hydroxyphenylacetamido}-3-[(1-methyl-tetrazol-5-yl)-thiomethyl]-ceph-3-em-4-carboxylat (Verbindung 2) wurden folgende MHK-Werte gegen einige gramnegative Keime gemessen: […]
A general note: In agar diffusion tests the substance spreads into inoculated agar from a disc or well.

The test system of the next assay is Pseud.aerug Hbg. In words: MIC (MHK), agar diffusion and serial dilution test. In kind it is cell-based. Particulars: read-out: MHK-Werte.
Excerpt: as §1, §2

The next assay relates to Pseud.aerug. ATCC 10145. In words: MIC (MHK), agar diffusion and serial dilution test. The class given is cell-based. Particulars: read-out: MHK-Werte.
Excerpt: as §1, §2

The next assay has as its system Klebs. pneum. ATCC 10031. In words: MIC (MHK), agar diffusion and serial dilution test. The class given is cell-based. Particulars: read-out: MHK-Werte.
Excerpt: as §1, §2

A further assay relates to Klebs. pneum. 272. In words: MIC (MHK), agar diffusion and serial dilution test. In kind it is cell-based. Particulars: read-out: MHK-Werte.
Excerpt: as §1, §2

For a further assay, the system named is E.coli ATCC 9637. In words: MIC (MHK), agar diffusion and serial dilution test. In kind it is cell-based. Particulars: Escherichia coli, ATCC9637, read-out: MHK-Werte.
Excerpt: as §1, §2

The test system of the next assay is E.coli 12593/ 74. In words: MIC (MHK), agar diffusion and serial dilution test. The class given is cell-based. Particulars: Escherichia coli, read-out: MHK-Werte.
Excerpt: as §1, §2

In another assay the test system is Proteus mirab. In words: MIC (MHK), agar diffusion and serial dilution test. Particulars: read-out: MHK-Werte. In kind it is cell-based.
Excerpt: as §1, §2

The next assay has as its system E.coli ATCC 11775. In words: MIC (MHK), agar diffusion and serial dilution test. In kind it is cell-based. Particulars: Escherichia coli, ATCC11775, read-out: MHK-Werte.
Excerpt: as §1, §2

The next assay has as its system Proteus Vulgaris. In words: MIC (MHK), agar diffusion and serial dilution test. The class given is cell-based. Particulars: read-out: MHK-Werte.
Excerpt: as §1, §2

Assay [2] deals with E. coli des Stammes ATCC 11 775. In words: ED50 in intraperitoneal E. coli infection of mice. The class given is in vivo, Albino-Mäusen vom Stamm NMRI. Particulars: Escherichia coli, ATCC11, sc; intraperitoneal E. coli ATCC 11 775 infection, NMRI albino mice, subcutaneous application; treated three times on day 1 (first 1 h after infection), twice daily on 2 further days. The protocol:
Dabei wurde die ED50 der oben genannten Verbindungen 1 und 2 bei einer intraperitonealen E. coli-Infektion an Albino-Mäusen vom Stamm NMRI bestimmt. Am ersten Tag wurde dreimal behandelt (erstmals 1 h nach Infektion) und 2 weitere Tage zweimalig.

These results are taken from patent EP0006532A1, “Lactams, methods for their preparation, and medicaments containing them” (Dr. Karl Thomae GmbH, priority 1978, dated 1980).

The ED50 is the dose at which the effect has come halfway, by size or by number of responders. Read a high ED50 as a need for a large dose.

Values after ≈ are worked out from the molar mass of the structure shown.

Turning to `Cn1nnnc1SCC1=C(C(=O)O)N2C(=O)[C@@H](NC(=O)[C@H](NC(=O)Nc3cnc(O)n(C)c3=O)c3ccc(O)cc3)[C@H]2SC1` [Beispiel 2], the MIC in [1] is 10 µg/mL (≈ 15.5 µM); with Pseud.aerug Hbg., 20 µg/mL (≈ 31 µM); in the assay with Pseud.aerug. ATCC 10145, 20 to 40 µg/mL (≈ 31 to 62 µM); in the assay on Klebs. pneum. ATCC 10031, 1.25 µg/mL (≈ 1.94 µM); in the assay on Klebs. pneum. 272, 2.5 µg/mL (≈ 3.88 µM); with E.coli ATCC 9637, 1.25 µg/mL (≈ 1.94 µM). Moreover, the MIC with E.coli 12593/ 74 amounted to 5 µg/mL (≈ 7.76 µM); with Proteus mirab., 1.25 µg/mL (≈ 1.94 µM); in the assay with E.coli ATCC 11775, 1.25 µg/mL (≈ 1.94 µM); in the assay on Proteus Vulgaris, 10 µg/mL (≈ 15.5 µM).
As to `Cn1c(O)ncc(NC(=O)N[C@@H](C(=O)N[C@@H]2C(=O)N3[C@@H]2SC(C)(C)[C@@H]3C(=O)O)c2ccc(O)cc2)c1=O` [Verbindung 1], the MIC in [1] was 2.5 µg/mL (≈ 4.69 µM); in the assay on Pseud.aerug Hbg., 5 µg/mL (≈ 9.39 µM); in the assay on Pseud.aerug. ATCC 10145 it was 5 µg/mL (≈ 9.39 µM); with Klebs. pneum. ATCC 10031, 40 to 80 µg/mL (≈ 75.1 to 150 µM); in the assay with Klebs. pneum. 272, 40 to 80 µg/mL (≈ 75.1 to 150 µM); in the assay on E.coli ATCC 9637, 2.5 µg/mL (≈ 4.69 µM). Moreover, the MIC in the assay with E.coli 12593/ 74 was over 80 µg/mL; in the assay with Proteus mirab., 1.25 µg/mL (≈ 2.35 µM); in the assay with E.coli ATCC 11775 it was 2.5 µg/mL (≈ 4.69 µM); in the assay on Proteus Vulgaris, 10 µg/mL (≈ 18.8 µM). Moreover, the ED50 in [2] amounted to 7 mg/kg.
`Cn1nnnc1SCC1=C(C(=O)[O-])N2C(=O)C(NC(=O)[C@H](NC(=O)Nc3cnc(O)n(C)c3=O)c3ccc(O)cc3)[C@H]2SC1.[Na+]` (stereo partly drawn) [Verbindung 2, Natrium-7-{D-α-[3-(3,4-Dihydro-2-hydroxy-3-methyl-4-oxo-5-pyrimidyl)-ureido]-p-hydroxyphenylacetamido}-3-[(1-methyl-tetrazol-5-yl)-thiomethyl]-ceph-3-em-4-carboxylat] registered an ED50 in assay [2] of 3.3 mg/kg.
